How the values were obtained:
NR1H2 = target: T1, NR1H2 (Homo sapiens, UniProt P55055); assay: Alkaline phosphatase (AP) assay in MPCs infected with Ad-NR1H2 and treated with ligand; assay type: cell-based; conditions: MPCs infected with Ad-NR1H2, increasing ligand concentrations, MUP readout after 7, 10 and 13 days
T1 construct: amplification of the complete open reading frame from ATG start codon to the stop codon of drugable genes; expressed in transfected cells; host or cells: primary human bone-marrow MPCs, adenoviral transduction (Ad5-NR1H2 with Ad-hCAR)
T1 sequence (P55055 1-460): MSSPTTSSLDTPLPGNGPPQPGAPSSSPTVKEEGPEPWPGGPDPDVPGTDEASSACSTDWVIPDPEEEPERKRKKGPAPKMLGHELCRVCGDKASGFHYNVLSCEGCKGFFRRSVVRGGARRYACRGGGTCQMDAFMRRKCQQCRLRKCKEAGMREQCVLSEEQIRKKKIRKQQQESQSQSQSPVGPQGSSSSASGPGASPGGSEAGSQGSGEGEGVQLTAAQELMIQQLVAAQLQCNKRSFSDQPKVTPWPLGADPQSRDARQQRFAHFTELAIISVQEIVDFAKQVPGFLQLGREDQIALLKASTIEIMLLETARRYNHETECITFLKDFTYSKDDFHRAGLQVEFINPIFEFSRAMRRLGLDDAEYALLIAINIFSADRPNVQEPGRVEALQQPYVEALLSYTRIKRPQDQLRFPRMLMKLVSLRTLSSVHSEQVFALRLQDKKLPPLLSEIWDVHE
Description: (§1) After 6 days, medium is removed and replaced with fresh medium containing the same concentrations of the compound T0901317. Readouts of AP activity are performed at several time points after the start of the experiment, typically after 7, 10 and 13 days. Up-regulation of alkaline phosphatase activity is read as follows: medium is removed from the monolayers, 15 μl MUP is added to each well, the plates are incubated for 15 min at 37° C. and then read for AP activity using a fluorescence plate reader (Fluostar, BMG).
as §1, with “MPCs are seeded on day 0 at 1000 cells per well of a 384 well plate and co-infected the next day using AdC51-hCAR (MOI 250) and different MOIs of Ad5-NR1H2 (MOI 2000, 666). On day 1, 9 concentrations (1.52E-9M, 4.57E-9M, 1.37E-8M, 4.12E-8M, 1.23E-7M, 3.7E-7M, 1.11E-6M, 3.33E-6M, 1E-5M) of the compound GW3965 with fixed vehicle concentration (DMSO at final concentration of 0.161%) are added to the wells. After” for “After”, “GW3965.” for “T0901317.”
as §1, with “APD.” for “T0901317.”

NR1H3 = target: T2, NR1H3 (Homo sapiens, UniProt Q13133); assay: Alkaline phosphatase (AP) assay in MPCs infected with Ad-NR1H3 and treated with ligand; assay type: cell-based
T2 construct: amplification of the complete open reading frame from ATG start codon to the stop codon of drugable genes; expressed in transfected cells; host or cells: primary human bone-marrow mesenchymal progenitor cells (MPCs), adenoviral transduction (Ad5-NR1H3 with Ad-hCAR)
T2 sequence (Q13133 1-447): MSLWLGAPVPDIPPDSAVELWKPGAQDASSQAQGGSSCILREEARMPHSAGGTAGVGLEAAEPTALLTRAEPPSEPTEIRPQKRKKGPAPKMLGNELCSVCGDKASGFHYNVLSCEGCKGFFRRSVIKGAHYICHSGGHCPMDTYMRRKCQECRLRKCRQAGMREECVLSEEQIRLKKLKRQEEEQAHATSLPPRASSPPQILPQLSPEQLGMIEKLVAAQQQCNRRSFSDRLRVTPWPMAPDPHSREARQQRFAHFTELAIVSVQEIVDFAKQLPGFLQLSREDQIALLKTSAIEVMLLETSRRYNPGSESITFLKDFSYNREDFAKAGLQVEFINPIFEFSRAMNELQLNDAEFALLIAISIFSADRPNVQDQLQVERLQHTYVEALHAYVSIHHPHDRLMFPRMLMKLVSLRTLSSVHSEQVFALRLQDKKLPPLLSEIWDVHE
Description: Cellular AP activity is determined 6 days after the infection (or ligand addition—see below). The principle of the assays is depicted in FIG. 2. Mesenchymal stem cells derived from bone marrow are infected with the FLeXSelect™ cDNA library viruses in the presence of Ad5C15-hCAR or Ad5C20-hCAR virus. Six days after the start of infection or treatment with a ligand, endogenous alkaline phosphatase activity is measured following addition of 4-methylumbelliferyl […] (MUP) substrate.
The stocks of the Ad-control-viruses are generated in 96 well plates (control plate). The 2 μl volume corresponds to a theoretical MOI of 5000. Controls are: P1=Ad-BMP2; P2=Ad-H4-2; P3=Ad-H4-291; N1=Ad-LacZ; N2=Ad-empty; N3=Ad-eGFP. Up-regulation of alkaline phosphatase is read at 6 days post infection (6 dpi): 15 μl 4-Methylumbelliferyl-phosphate (MUP, Sigma) is added to each well, the plates are incubated for 15 min at 37° C. and monitored for AP activity using a fluorescence plate reader (Fluostar, BMG).
These dose-response curves are depicted in FIG. 5. […] MPCs are seeded on day 0 at 1000 cells per well of a 384 well plate and co-infected the next day using AdC51-hCAR (MOI 250) and different MOIs of Ad5-NR1H3 (MOI 12000, 4000, 1333, 444).
After 6 days, medium is removed and replaced with fresh medium containing the same concentrations of the compound GW3965. Readouts of AP activity are performed at several time points after the start of the experiment, typically after 7, 10 and 13 days.
After 6 days, medium is removed and replaced with fresh medium containing the same concentrations of the compound APD.

For `O=S(=O)(c1ccccc1)N(CC(F)(F)F)c1ccc(C(O)(C(F)(F)F)C(F)(F)F)cc1` [T0901317], the “up-regulation of alkaline phosphatase (AP) activity” value (NR1H2) was “dose-response relation”, the “induction of AP activity in MPC isolates from 4 different donors” value (NR1H3; Ad-NR1H3 MOI 2500 + T0901317 at different concentrations, 6 days) was “induce AP activity to similar extents” and the “up-regulation of endogenous alkaline phosphatase (AP) activity” value (NR1H3; MPCs infected with Ad-NR1H3, increasing ligand concentrations, MUP fluorescence readout) was “dose-dependently increase”.

Source: patent US20060014231A1, “Methods and compositions to promote bone homeostasis” (priority 2004, published 2006)
